The subject of data set [1] is Echinochloa oryzoides (Ard.) Fritsch. The data set is described as follows: Preemergence weed control under flooded paddy conditions, ECHORC (Watergrass (Calif.)). On herbicidal effect rating, ECHORC: meaning of each grade not given here. It is filed as in vivo. To be noted: flooded paddy; for herbicidal effect rating, ECHORC: preemergence; for ECHORC: preemergence weeds, herbicidal effect rating 0-9, three to four weeks after treatment.
The next data set concerns Cyperus iria. The data set is described as follows: Preemergence weed control under flooded paddy conditions, CYPIR (Rice Flatsedge). On herbicidal effect rating, CYPIR: meaning of each grade not given here. It is filed as in vivo. To be noted: flooded paddy; for herbicidal effect rating, CYPIR: preemergence; for CYPIR: preemergence weeds, herbicidal effect rating 0-9, three to four weeks after treatment.
The test system of the next data set is Sagittaria pygmaea, L. The experiment in a line: Preemergence weed control under flooded paddy conditions, SAGPY (Arrowhead (Pygmaea)). On herbicidal effect rating, SAGPY: meaning of each grade not given here. To be noted: flooded paddy; for herbicidal effect rating, SAGPY: preemergence; for SAGPY: preemergence weeds, herbicidal effect rating 0-9, three to four weeks after treatment. It is filed as in vivo.
For data set [2], the system named is Cyperus serotinus, Rottb. The experiment in a line: Preemergence weed control under flooded paddy conditions, CYPSE (Flatsedge). On herbicidal effect rating, CYPSE: meaning of each grade not given here. It is filed as in vivo. To be noted: for herbicidal effect rating, CYPSE: preemergence; for CYPSE: preemergence weeds, herbicidal effect rating 0-9, three to four weeks after treatment.
The subject of data set [3] is Oryza sativa, (L.) Tebonnet. The data set is described as follows: Rice tolerance to post-transplant applications under flooded paddy conditions (Example 187), ORYSAT (Rice, Tebonnet). On herbicidal effect rating ORYSAT: meaning of each grade not given here. The following applies: for herbicidal effect rating ORYSAT: rated 3-4 weeks after treatment; for ORYSAT: herbicidal effect rating 0-9, three to four weeks after treatment; for herbicidal effect rating, ORYSAT (rice tolerance): rated three to four weeks after treatment.

The subject of data set [4] is Monochoria vaginalis, Presl. The data set is described as follows: Preemergence weed control under flooded paddy conditions, MOOVA (Monochoria). On herbicidal effect rating, MOOVA: meaning of each grade not given here. To be noted: flooded paddy; for herbicidal effect rating, MOOVA: preemergence; for MOOVA: preemergence weeds, herbicidal effect rating 0-9, three to four weeks after treatment. It is filed as in vivo.
The mark [5] stands for this setting: Rate 0.0620 kg/ha, rated 3-4 weeks after treatment.
The mark [6] stands for this setting: Rate 0.1250 kg/ha, rated 3-4 weeks after treatment.
Where [7] appears, read: Rate 0.2500 kg/ha, rated 3-4 weeks after treatment.
[8] abbreviates: Rate 0.5000 kg/ha, rated 3-4 weeks after treatment.
Setting [9] is: 0.0313 kg/ha, rated three to four weeks after treatment.
Where [10] appears, read: 0.0625 kg/ha, rated three to four weeks after treatment.
The mark [11] stands for this setting: 0.1250 kg/ha, rated three to four weeks after treatment.
[12] abbreviates: 0.2500 kg/ha, rated three to four weeks after treatment.

Molecules are shown by their SMILES.

Regarding `CCOC(=O)c1ccc(NC(=O)C(C)Oc2ccc(C)cc2-c2nsc3ccc(-n4c(=O)cc(C(F)(F)F)n(C)c4=O)cc23)cc1` (stereo not drawn) [Example 541, Benzoic acid, p-{2-{{2-{5-[3,6-dihydro-3-methyl-2,6-dioxo-4-(trifluoromethyl)-1(2H)-pyrimidinyl]-1,2-benzisothiazol-3-yl}-p-tolyl}oxy}propionamido}-, ethyl ester], the “herbicidal effect rating, ECHORC” value in data set [1] (setting [5]) was found to be 0.0; in data set [1] (setting [6]), 0.0; in data set [1] (setting [7]), 4.0; in data set [1] (setting [8]) it was 6.0. Moreover, the “herbicidal effect rating, CYPIR” value with Cyperus iria (setting [5]) is listed as 3.0; in the data set with Cyperus iria (setting [6]), 4.0; with Cyperus iria (setting [7]) it was 6.0; with Cyperus iria (setting [8]), 9.0. Further, the “herbicidal effect rating, SAGPY” value in the data set on Sagittaria pygmaea, L. (setting [5]) turned out to be 0.0; in the data set on Sagittaria pygmaea, L. (setting [6]), 0.0; with Sagittaria pygmaea, L. (setting [7]), 0.0; in the data set on Sagittaria pygmaea, L. (setting [8]), 0.0. Besides, the “herbicidal effect rating, CYPSE” value in data set [2] (setting [5]), in data set [2] (setting [6]), in data set [2] (setting [7]) and in data set [2] (setting [8]) was 0.0 in each case. Further, the “herbicidal effect rating ORYSAT” value in data set [3] (Rate 0.0620 kg/ha) worked out at 0.0; in data set [3] (Rate 0.1250 kg/ha) it was 0.0; in data set [3] (Rate 0.2500 kg/ha), 0.0; in data set [3] (Rate 0.5000 kg/ha), 2.0. For the same compound, the “herbicidal effect rating, MOOVA” value in data set [4] (setting [5]), in data set [4] (setting [6]), in data set [4] (setting [7]) and in data set [4] (setting [8]) was 9.0 in each case.

`CCOCN(C(=O)c1nsc2ccc(-n3c(=O)cc(C(F)(F)F)n(C)c3=O)cc12)S(=O)(=O)Cc1ccccc1` [Example 440, 1,2-Benzisothiazole-3-carboxamide, N-(benzylsulfonyl)-5-[3,6-dihydro-3-methyl-2,6-dioxo-4-(trifluoromethyl)-1(2H)-pyrimidinyl]-N-(ethoxymethyl)-]: the ECHORC in data set [1] (0.0320 kg/ha) was 5.0; in data set [1] (0.0620 kg/ha), 7.0; in data set [1] (0.1250 kg/ha) it was 9.0; in data set [1] (0.2500 kg/ha), 9.0. The CYPIR with Cyperus iria (0.0320 kg/ha) turned out to be 5.0; in the data set with Cyperus iria (0.0620 kg/ha), 9.0; in the data set with Cyperus iria (0.1250 kg/ha) it was 9.0; in the data set on Cyperus iria (0.2500 kg/ha), 9.0. Besides, the SAGPY was 4.0 in the data set on Sagittaria pygmaea, L. (0.0320 kg/ha); 6.0 in the data set on Sagittaria pygmaea, L. (0.0620 kg/ha); 7.0 in the data set on Sagittaria pygmaea, L. (0.1250 kg/ha); 9.0 with Sagittaria pygmaea, L. (0.2500 kg/ha). The CYPSE is recorded as 6.0 in data set [2] (0.0320 kg/ha), 9.0 in data set [2] (0.0620 kg/ha), 9.0 in data set [2] (0.1250 kg/ha) and 9.0 in data set [2] (0.2500 kg/ha). Besides, the ORYSAT is on record as 3.0 in data set [3] (0.0320 kg/ha), 4.0 in data set [3] (0.0620 kg/ha), 4.0 in data set [3] (0.1250 kg/ha) and 4.0 in data set [3] (0.2500 kg/ha). The MOOVA in data set [4] (0.0320 kg/ha) is given as 7.0; in data set [4] (0.0620 kg/ha) it was 9.0; in data set [4] (0.1250 kg/ha), 9.0; in data set [4] (0.2500 kg/ha) it was 9.0.

Turning to `CCOC(=O)c1nsc2cc(F)c(-n3c(=O)cc(C(F)(F)F)n(C)c3=O)cc12` [Example 423, 1,2-Benzisothiazole-3-carboxylic acid, 5-[3,6-dihydro-3-methyl-2,6-dioxo-4-(trifluoromethyl)-1(2H)-pyrimidinyl]-6-fluoro-, ethyl ester], the ECHORC is reported as 6.0 in data set [1] (0.0320 kg/ha), 9.0 in data set [1] (0.0620 kg/ha), 9.0 in data set [1] (0.1250 kg/ha) and 9.0 in data set [1] (0.2500 kg/ha). The CYPIR is given as 6.0 in the data set with Cyperus iria (0.0320 kg/ha), 7.0 in the data set on Cyperus iria (0.0620 kg/ha), 9.0 in the data set on Cyperus iria (0.1250 kg/ha) and 9.0 with Cyperus iria (0.2500 kg/ha). Besides, the SAGPY is listed as 9.0 in the data set on Sagittaria pygmaea, L. (0.0320 kg/ha); 9.0 in the data set on Sagittaria pygmaea, L. (0.0620 kg/ha); 9.0 in the data set with Sagittaria pygmaea, L. (0.1250 kg/ha); 9.0 in the data set on Sagittaria pygmaea, L. (0.2500 kg/ha). For the same compound, the CYPSE in data set [2] (0.0320 kg/ha), in data set [2] (0.0620 kg/ha), in data set [2] (0.1250 kg/ha) and in data set [2] (0.2500 kg/ha) was 9.0 throughout. The ORYSAT in data set [3] (0.0320 kg/ha) was 5.0; in data set [3] (0.0620 kg/ha) it was 6.0; in data set [3] (0.1250 kg/ha), 7.0; in data set [3] (0.2500 kg/ha) it was 7.0. For the same compound, the MOOVA in data set [4] (0.0320 kg/ha), in data set [4] (0.0620 kg/ha), in data set [4] (0.1250 kg/ha) and in data set [4] (0.2500 kg/ha) was 9.0 throughout.

`C=CCOc1ccc(C)cc1-c1nsc2ccc(-n3c(=O)cc(C(F)(F)F)n(C)c3=O)cc12` [Example 65, 3-{3-[6-(Allyloxy)-m-tolyl]-1,2-benzisothiazol-5-yl}-1-methyl-6-(trifluoromethyl)-2,4(1H,3H)-pyrimidinedione]: the “herbicidal effect rating, ECHORC” value in data set [1] (setting [9]), in data set [1] (setting [10]), in data set [1] (setting [11]) and in data set [1] (setting [12]) was 0.0 each time. Also, the “herbicidal effect rating, CYPIR” value in the data set on Cyperus iria (setting [9]), in the data set with Cyperus iria (setting [10]), in the data set with Cyperus iria (setting [11]) and with Cyperus iria (setting [12]) was 0.0 throughout. Also, the “herbicidal effect rating, SAGPY” value with Sagittaria pygmaea, L. (setting [9]) is 0.0; in the data set on Sagittaria pygmaea, L. (setting [10]), 0.0; with Sagittaria pygmaea, L. (setting [11]), 0.0; in the data set with Sagittaria pygmaea, L. (setting [12]), 0.0. The “herbicidal effect rating, CYPSE” value in data set [2] (setting [9]), in data set [2] (setting [10]), in data set [2] (setting [11]) and in data set [2] (setting [12]) was 0.0 in each case. Moreover, the “herbicidal effect rating, ORYSAT (rice tolerance)” value in data set [3] (0.0313 kg/ha), in data set [3] (0.0625 kg/ha), in data set [3] (0.1250 kg/ha) and in data set [3] (0.2500 kg/ha) was 0.0 in each case. Moreover, the “herbicidal effect rating, MOOVA” value in data set [4] (setting [9]), in data set [4] (setting [10]), in data set [4] (setting [11]) and in data set [4] (setting [12]) was 0.0 throughout.
